According to patent US8258114B2, “Modulation of glucose-6-phosphatase translocase expression” (Isis Pharmaceuticals, Inc., priority 2004, dated 2012):
Oligonucleotides are written 5' to 3', each unit as a sugar letter and its base; * is a phosphorothioate linkage, no mark a phosphodiester; rarer units and linkages stand in square brackets, end groups in braces. Plain capitals give the bases only. e = 2'-O-(2-methoxyethyl) (MOE); [5mC] = 5-methylcytosine; d = 2'-deoxy (DNA)

These substances were tested on mouse glucose-6-phosphatase translocase mRNA (assay: Antisense inhibition of mouse glucose-6-phosphatase translocase mRNA in primary mouse hepatocytes, 150 nM, LIPOFECTIN (Table 22)). Conditions: real-time PCR.
Type: cell-based
Protocol: Primary mouse hepatocytes were prepared from CD-1 mice purchased from Charles River Labs. Primary mouse hepatocytes were routinely cultured in Hepatocyte Attachment Media supplemented with 10% fetal bovine serum (Invitrogen Life Technologies, Carlsbad, Calif.), 250 nM dexamethasone, and 10 nM bovine insulin (Sigma-Aldrich, St. Louis, Mo.). Cells were seeded into 96-well plates (Falcon-Primaria #353872, BD Biosciences, Bedford, Mass.) at a density of approximately 4,000-6,000 cells/well for use in oligomeric compound transfection experiments.
When cells reached 65-75% confluency, they were treated with oligonucleotide. Oligonucleotide was mixed with LIPOFECTIN™ Invitrogen Life Technologies, Carlsbad, Calif.) in Opti-MEM™-1 reduced serum medium (Invitrogen Life Technologies, Carlsbad, Calif.) to achieve the desired concentration of oligonucleotide and a LIPOFECTIN™ concentration of 2.5 or 3 μg/mL per 100 nM oligonucleotide. This transfection mixture was incubated at room temperature for approximately 0.5 hours. For cells grown in 96-well plates, wells were washed once with 100 μL OPTI-MEM™-1 and then treated with 130 μL of the transfection mixture. Cells grown in 24-well plates or other standard tissue culture plates are treated similarly, using appropriate volumes of medium and oligonucleotide. Cells are treated and data are obtained in duplicate or triplicate. After approximately 4-7 hours of treatment at 37° C., the medium containing the transfection mixture was replaced with fresh culture medium. Cells were harvested 16-24 hours after oligonucleotide treatment.
Quantitation of glucose 6-phosphatase translocase mRNA levels was accomplished by real-time quantitative PCR using the ABI PRISM™ 7600, 7700, or 7900 Sequence Detection System (PE-Applied Biosystems, Foster City, Calif.) according to manufacturer's instructions.
Prior to quantitative PCR analysis, primer-probe sets specific to the target gene being measured were evaluated for their ability to be “multiplexed” with a GAPDH amplification reaction. After isolation the RNA is subjected to sequential reverse transcriptase (RT) reaction and real-time PCR, both of which are performed in the same well. RT and PCR reagents were obtained from Invitrogen Life Technologies (Carlsbad, Calif.). […] The RT reaction was carried out by incubation for 30 minutes at 48° C. Following a 10 minute incubation at 95° C. to activate the PLATINUM® Taq, 40 cycles of a two-step PCR protocol were carried out: 95° C. for 15 seconds (denaturation) followed by 60° C. for 1.5 minutes (annealing/extension).
Gene target quantities obtained by RT, real-time PCR were normalized using either the expression level of GAPDH, a gene whose expression is constant, or by quantifying total RNA using RiboGreen™ (Molecular Probes, Inc. Eugene, Oreg.). GAPDH expression was quantified by RT, real-time PCR, by being run simultaneously with the target, multiplexing, or separately. Total RNA was quantified using RiboGreen™ RNA quantification reagent (Molecular Probes, Inc. Eugene, Oreg.).
A series of oligomeric compounds was designed to target different regions of mouse glucose-6-phosphatase translocase, using published sequences cited in Table 1. All compounds in Table 22 are chimeric oligonucleotides (“gapmers”) 20 nucleotides in length, composed of a central “gap” region consisting of 10 2′-deoxynucleotides, which is flanked on both sides (5′ and 3′) by five-nucleotide “wings”. The wings are composed of 2′-O-(2-methoxyethyl) nucleotides, also known as 2′-MOE nucleotides. The internucleoside (backbone) linkages are phosphorothioate throughout the oligonucleotide. All cytidine residues are 5-methylcytidines. The compounds were analyzed for their effect on gene target mRNA levels by quantitative real-time PCR as described in other examples herein, using the following primer-probe set designed to hybridize to mouse glucose-6-phosphatase translocase: • forward primer: […]

Row | Substance | % Inhib of mouse glucose-6-phosphatase translocase mRNA levels [%]
1 | 145647 (antisense e[5mC]*eT*e[5mC]*eT*eT*dG*dA*d[5mC]*dT*dG*d[5mC]*dT*d[5mC]*d[5mC]*dT*eG*e[5mC]*eT*eT*eG) [compound 145647] | 52
2 | 145648 (antisense e[5mC]*eT*eT*e[5mC]*eT*dG*dA*d[5mC]*d[5mC]*dA*d[5mC]*dA*dG*dA*d[5mC]*eT*e[5mC]*eT*eT*eG) [compound 145648] | 26
3 | 145649 (antisense eG*e[5mC]*e[5mC]*e[5mC]*eA*d[5mC]*dT*d[5mC]*d[5mC]*dA*dG*dT*dA*d[5mC]*dT*eT*e[5mC]*eT*eG*eA) [compound 145649] | 61
4 | 145650 (antisense eA*eA*eG*e[5mC]*eT*dG*dG*d[5mC]*d[5mC]*d[5mC]*dT*dG*d[5mC]*dT*dG*eG*e[5mC]*e[5mC]*e[5mC]*eA) [compound 145650] | 54
5 | 145651 (antisense eG*eT*eA*eG*eA*dA*dA*dA*dA*dG*d[5mC]*dT*dG*dG*d[5mC]*e[5mC]*e[5mC]*eT*eG*e[5mC]) [compound 145651] | 31
6 | 145653 (antisense eT*eT*eG*eG*eG*d[5mC]*dT*dG*d[5mC]*d[5mC]*dA*dT*dG*dG*dT*eA*eG*eA*eA*eA) [compound 145653] | 42
7 | 145654 (antisense eA*eG*eT*eG*e[5mC]*dG*dA*dT*dA*dG*dT*dA*dG*d[5mC]*d[5mC]*eG*eT*eA*eG*e[5mC]) [compound 145654] | 47
8 | 145655 (antisense eA*eA*e[5mC]*eA*eT*dG*dG*d[5mC]*d[5mC]*dG*d[5mC]*dA*dA*dA*dT*eA*eT*eG*eA*e[5mC]) [compound 145655] | 29
9 | 145656 (antisense eT*eA*e[5mC]*eA*eG*dG*d[5mC]*dT*dG*dT*dA*dG*d[5mC]*d[5mC]*dT*e[5mC]*e[5mC]*eA*eA*eA) [compound 145656] | 47
10 | 145658 (antisense eT*eG*eG*eT*e[5mC]*dT*dG*dA*d[5mC]*dA*dG*dA*dA*d[5mC]*d[5mC]*e[5mC]*e[5mC]*eG*e[5mC]*eT) [compound 145658] | 36
11 | 145659 (antisense e[5mC]*eG*e[5mC]*eT*e[5mC]*dA*dT*d[5mC]*dT*dG*dG*dT*d[5mC]*dT*dG*eA*e[5mC]*eA*eG*eA) [compound 145659] | 15
12 | 145660 (antisense eT*eG*eT*eG*eG*dA*dG*d[5mC]*dT*d[5mC]*d[5mC]*dA*dT*dG*dA*eG*eA*eA*eG*eA) [compound 145660] | 40
13 | 145661 (antisense eA*e[5mC]*e[5mC]*eA*eA*dG*dG*dA*dG*d[5mC]*dA*dG*d[5mC]*dA*dA*eA*eG*eG*e[5mC]*eT) [compound 145661] | 25
14 | 145663 (antisense eT*eT*eG*eA*e[5mC]*dA*dA*d[5mC]*dA*d[5mC]*dA*dG*d[5mC]*d[5mC]*d[5mC]*eA*e[5mC]*e[5mC]*eA*eA) [compound 145663] | 48
15 | 145665 (antisense e[5mC]*e[5mC]*eA*eG*e[5mC]*d[5mC]*dA*dG*dG*dT*dT*d[5mC]*dA*dT*dG*e[5mC]*eT*eG*eG*eT) [compound 145665] | 22
16 | 145666 (antisense eA*eA*eG*eA*eT*dA*dG*dG*dT*d[5mC]*d[5mC]*d[5mC]*dA*dA*dA*e[5mC]*eT*eT*e[5mC]*e[5mC]) [compound 145666] | 28
17 | 145669 (antisense e[5mC]*eA*e[5mC]*eA*eG*dT*dG*d[5mC]*d[5mC]*d[5mC]*d[5mC]*dA*dG*dA*d[5mC]*eA*eG*eG*eG*e[5mC]) [compound 145669] | 9

Row | Substance | % Inhib of mouse glucose-6-phosphatase translocase mRNA levels [%]
18 | 145672 (antisense eT*eG*eT*eG*eG*dA*dT*dG*dA*dG*d[5mC]*dA*dG*d[5mC]*dA*eG*eA*e[5mC]*eA*eG) [compound 145672] | 8
19 | 145674 (antisense e[5mC]*eA*eG*e[5mC]*eA*dG*dG*dT*dT*d[5mC]*dA*dT*dT*dG*dT*eG*eG*eA*eT*eG) [compound 145674] | 43
20 | 145675 (antisense eA*eA*e[5mC]*eA*eT*d[5mC]*dA*dG*d[5mC]*dA*dG*dG*dT*dT*d[5mC]*eA*eT*eT*eG*eT) [compound 145675] | 23
21 | 145676 (antisense GAGTCCAACATCAGCAGGTTCA; 2'-MOE gapmer, further chemistry not given here) [compound 145676] | 51
22 | 145677 (antisense e[5mC]*eT*eT*e[5mC]*eT*dT*dG*d[5mC]*d[5mC]*d[5mC]*dT*d[5mC]*dA*dG*dA*eG*eG*eG*e[5mC]*eA) [compound 145677] | 9
23 | 145678 (antisense eG*eA*eG*e[5mC]*e[5mC]*d[5mC]*dT*dT*d[5mC]*dT*dT*dG*d[5mC]*d[5mC]*d[5mC]*eT*e[5mC]*eA*eG*eA) [compound 145678] | 60
24 | 145679 (antisense eT*e[5mC]*eA*eA*eG*dG*dA*dG*d[5mC]*d[5mC]*d[5mC]*dT*dT*d[5mC]*dT*eT*eG*e[5mC]*e[5mC]*e[5mC]) [compound 145679] | 17
25 | 145680 (antisense e[5mC]*eT*e[5mC]*e[5mC]*eT*dT*d[5mC]*dA*dA*dG*dG*dA*dG*d[5mC]*d[5mC]*e[5mC]*eT*eT*e[5mC]*eT) [compound 145680] | 0
26 | 145681 (antisense e[5mC]*eT*e[5mC]*eT*e[5mC]*d[5mC]*dT*d[5mC]*d[5mC]*dT*dT*d[5mC]*dA*dA*dG*eG*eA*eG*e[5mC]*e[5mC]) [compound 145681] | 36
27 | 145682 (antisense eG*eG*eG*eT*eG*d[5mC]*dT*d[5mC]*dT*d[5mC]*d[5mC]*dT*d[5mC]*d[5mC]*dT*eT*e[5mC]*eA*eA*eG) [compound 145682] | 31
28 | 145683 (antisense e[5mC]*eA*eG*e[5mC]*eT*d[5mC]*d[5mC]*dT*dG*dT*dA*dG*dG*dG*dT*eG*e[5mC]*eT*e[5mC]*eT) [compound 145683] | 0
29 | 145684 (antisense eT*e[5mC]*eT*eT*eT*dA*d[5mC]*dT*d[5mC]*d[5mC]*dG*dA*dA*dG*dA*e[5mC]*e[5mC]*eA*e[5mC]*eA) [compound 145684] | 43
30 | 145687 (antisense e[5mC]*eT*e[5mC]*e[5mC]*eT*dG*dG*dA*dT*dA*dA*dG*dG*dA*dA*eG*eA*eA*e[5mC]*eT) [compound 145687] | 12
31 | 145688 (antisense eA*e[5mC]*eT*eG*e[5mC]*d[5mC]*d[5mC]*dT*d[5mC]*dT*d[5mC]*dT*d[5mC]*d[5mC]*dT*eG*eG*eA*eT*eA) [compound 145688] | 25
32 | 145689 (antisense e[5mC]*eA*eA*eG*eG*dG*d[5mC]*dG*dG*dA*d[5mC]*dT*dG*d[5mC]*d[5mC]*e[5mC]*eT*e[5mC]*eT*e[5mC]) [compound 145689] | 34
33 | 145690 (antisense e[5mC]*eT*e[5mC]*e[5mC]*eG*dA*d[5mC]*d[5mC]*dT*d[5mC]*dG*dA*dG*dG*dG*e[5mC]*eA*e[5mC]*eT*eG) [compound 145690] | 56
